A short description of series [1]: In vivo pharmacokinetic study in female CD1 mice. As to conditions: P.O. 3mg/kg and 10mg/kg.
In series [2] the target is BRD2 (BD1) (Homo sapiens, UniProt P25440). Kind of series: TR-FRET binding assay, BRD2. Background: In TR-FRET formats the signal depends on donor and acceptor labels being close together.
The subject of series [3] is HDMB03 medulloblastoma cells. The series can be described thus: cells. Format: cell-based. As to conditions: Homo sapiens, HD-MB03, 72 h, read-out: HDMB03, IC50.
In series [4] the test system is NALM16 leukaemia cells. Kind of series: Cancer cell viability, CellTiter-Glo, NALM16. As to conditions: NALM16, 72 h, read-out: NALM16, IC50. Format: cell-based. For orientation: Cellular ATP, detected with luciferase, serves as a proxy for viable cell number.
For series [5], the target named is BRD4 (BD1) (Homo sapiens, UniProt O60885). The series can be described thus: TR-FRET binding assay, BRD4.
Series [6] relates to MYC. The series can be described thus: MYC protein abundance by immunoblotting in MV4-11. Format: cell-based. As to conditions: MV4–11, 6 hours incubation, 100 nM.
In series [7] the test system is BET isoforms. Kind of series: BROMOscan profiling. As to conditions: all BET isoforms (Figure S2).
For series [8] the following is noted: incubation up to 48h.
Series [9] can be described thus: in vitro. As to conditions: human; for Papp B→A: Caco-2; for Papp: Caco-2, Caco2 A/B (Papp), A to B.
The nature of series [10]: in vitro. As to conditions: human, plasma.
Series [11] in a line: in vitro. As to conditions: human, microsomes.
Series [12] deals with MOLM-13 acute leukaemia cells. The series can be described thus: Cancer cell viability, CellTiter-Glo, MOLM-13. Format: cell-based. As to conditions: Homo sapiens, MOLM-13, 72 h, read-out: MOLM-13, IC50.
Series [13] in a line: physchem. As to conditions: phosphate buffer, pH 7.4.
The conditions of series [14]: incubation 0.5h, UV; table.
Series [15] concerns the target BRD4(BD2) (Homo sapiens, UniProt O60885). Kind of series: TR-FRET binding assay, BRD4.
The format of series [16] is in vitro ADME. As to conditions: RED assay.
For series [17], the target named is BRD2(BD2) (Homo sapiens, UniProt P25440). The series can be described thus: TR-FRET binding assay, BRD2.
Series [18] concerns D283 medulloblastoma cells. The series can be described thus: Cancer cell viability, CellTiter-Glo, D283. Format: cell-based. As to conditions: D283, 72 h, read-out: D283, IC50.

The text below walks through data of paper PMC10165889 (European journal of medicinal chemistry, 2023).

The structures appear in SMILES notation. ≈ marks a conversion by molar mass, not a printed value. Where only a bound is given, the exact number is not on record here.

Sequence of BRD2 (BD1) (P25440 74-180 limits assumed): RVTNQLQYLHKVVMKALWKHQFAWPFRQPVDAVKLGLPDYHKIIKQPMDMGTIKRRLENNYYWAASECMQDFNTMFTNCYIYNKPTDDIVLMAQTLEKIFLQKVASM
Sequence of BRD2(BD2) (P25440 344-453 limits assumed): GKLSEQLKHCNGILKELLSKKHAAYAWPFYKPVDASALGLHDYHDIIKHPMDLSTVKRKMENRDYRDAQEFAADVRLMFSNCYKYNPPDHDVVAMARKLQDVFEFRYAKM

On to `Cc1sc2c(c1C)C(c1ccc(Cl)cc1)=N[C@@H](CC(=O)Nc1nncs1)c1nnc(C)n1-2` [1q], for which the “oral bioavailability in words” value in [1] is listed as “high bioavailability”. In addition, the 50% inhibitory concentration (IC50) (usually the concentration needed to halve the response being measured) in [2] was 1.6 nM; in series [3] it was 6.6 nM; in series [4] it was 3.6 nM; in [5] it was 6.5 nM. For the same compound, the MYC protein abundance entry in series [6] was “around 50%”. For the same compound, the “affinity in BROMOscan profiling” value in series [7] is listed as “high affinity for all BET isoforms”. This compound also displayed a human plasma stability in [8] of 100%.
With `Cc1sc2c(c1C)C(c1ccc(Cl)cc1)=N[C@@H](CC(=O)NCCO)c1nnc(C)n1-2` [1n], in [9], the Papp B→A (commonly the apparent permeability from the basolateral to the apical side of a cell layer) was determined as 8.33 ×10⁻⁶ cm/s and the apparent permeability (Papp) (usually a coefficient for how fast a substance crosses the barrier) was 0.7 ×10⁻⁶ cm/s. In addition, the half-life (as a rule, the time in which the quantity being followed falls by half) in [10] is > 100 h. In series [11], this compound had a half-life of 3.2 h. In series [12], the IC50 was determined as 8.8 nM. The solubility (usually the dissolved amount per volume that the medium holds) at 18 h in series [13] was determined as 76.1 µM (≈ 33.8 µg/mL).
Compound `Cc1sc2c(c1C)C(c1ccc(Cl)cc1)=N[C@@H](CC(=O)NCc1cn(C)cn1)c1nnc(C)n1-2` [1f] had a half-life in [11] of 0.5 h. Moreover, in series [14], the PAMPA is 0.0 10^−6cm/s. Also, the concentration in solution in [13] (solubility at 18 h) was 65.7 µM (≈ 32.5 µg/mL).
In turn, `Cc1sc2c(c1C)C(c1ccc(Cl)cc1)=N[C@@H](CC(=O)NCc1cn(C)nn1)c1nnc(C)n1-2` [1e] gave a half-life in series [11] of 0.5 h. Further, in [14], the PAMPA is recorded as 14.0 10^−6cm/s. The solubility at 18 h in [13] stood at 80.8 µM (≈ 40 µg/mL).
The compound `COC(=O)C(Cc1c[nH]cn1)NC(=O)C[C@@H]1N=C(c2ccc(Cl)cc2)c2c(sc(C)c2C)-n2c(C)nnc21` (some centres unmarked) [1j] had an IC50 in series [15] of 6.5 nM. Further, the half-life is 24.7 h in series [10] and 4.7 h in [11]. Further, the “PB (human plasma binding)” value in series [16] was found to be 92.7%. The PAMPA in series [14] is listed as 0.0 10^−6cm/s. This compound also gave a solubility at 18 h in [13] of 68.4 µM (≈ 37.8 µg/mL).
As for `Cc1sc2c(c1C)C(c1ccc(Cl)cc1)=N[C@@H](CC(=O)NCc1c[nH]nn1)c1nnc(C)n1-2` [1d], the IC50 in [15] was found to be 1.3 nM; in series [2], 8.6 nM. Also, in series [11], the half-life is 0.6 h. In [13], this compound yielded a solubility at 18 h of 57.4 µM (≈ 27.6 µg/mL).
Take `Cc1sc2c(c1C)C(c1ccc(Cl)cc1)=N[C@@H](CC(=O)Nc1nccs1)c1nnc(C)n1-2` [1o]: the Papp B→A in series [9] was determined as 4.11 ×10⁻⁶ cm/s. In addition, the Papp in series [9] was found to be 1.91 ×10⁻⁶ cm/s. In addition, the IC50 in [2] came out at 10.9 nM; in series [17], 2.6 nM; in series [4], 6.4 nM. The compound further showed a half-life in series [11] of 1.1 h. For the same compound, in [16], the “PB (human plasma binding)” value was 98.2%. This compound also yielded a solubility at 18 h in series [13] of 12.4 µM (≈ 5.99 µg/mL).
Compound `Cc1sc2c(c1C)C(c1ccc(Cl)cc1)=N[C@@H](CC(=O)NCc1ccccn1)c1nnc(C)n1-2` [1k] came in with an apparent permeability from basolateral to apical (Papp B→A) in [9] of 56.8 ×10⁻⁶ cm/s. Besides, in [9], the Papp was 9.84 ×10⁻⁶ cm/s. Moreover, the half-life in series [10] was > 100 h; in [11], 0.1 h. The IC50 in series [4] stood at 14.8 nM. Also, the concentration in solution in series [13] (solubility at 18 h) was 72.5 µM (≈ 35.6 µg/mL).
Consider `Cc1sc2c(c1C)C(c1ccc(Cl)cc1)=N[C@@H](CC(=O)Nc1ccc(O)cc1)c1nnc(C)n1-2` [1c, birabresib, reference compound], for which the “PB (human plasma binding)” value in [16] amounted to 97.3%.
With `Cc1sc2c(c1C)C(c1ccc(Cl)cc1)=N[C@@H](CC(=O)NCc1ccon1)c1nnc(C)n1-2` [1h], the “PB (human plasma binding)” value in series [16] is reported as 93.5%.
Turning to `Cc1sc2c(c1C)C(c1ccc(Cl)cc1)=N[C@@H](CC(=O)NCc1ncco1)c1nnc(C)n1-2` [1i], the IC50 in series [4] was 0.8 nM.
Regarding `Cc1sc2c(c1C)C(c1ccc(Cl)cc1)=N[C@@H](CC(=O)NCC(=O)O)c1nnc(C)n1-2` [1l], in series [11], the half-life was 11.3 h. Besides, in series [14], the PAMPA is listed as 0.5 10^−6cm/s. Also, in [18], the IC50 is > 8850 nM. In series [13], this compound registered a solubility at 18 h of 66.4 µM (≈ 30.4 µg/mL).
`Cc1sc2c(c1C)C(c1ccc(Cl)cc1)=N[C@@H](CC(=O)NCc1ccccc1)c1nnc(C)n1-2` [1g] gave a half-life in [11] of 0.1 h. In series [13], the solubility at 18 h turned out to be 34.1 µM (≈ 16.7 µg/mL).
